The text below walks through data of patent US20250154198A1, “PEPTIDE INHIBITORS OF INTERLEUKIN-23 RECEPTOR” (Zealand Pharma A/S, priority 2021, published 2025).

Like-named read-outs stand apart in the source and are kept apart here. *1 amine or outer side, *2 acyl side, *3 side chain or, on linkers, in order; H or OH if unused. Where a SMILES comes first, the peptide text is derived from it. Bridges are numbered along the chain shown (N, C = ends). [ ]: non-standard residue; d: D form. The star is where a group is joined. Trp(7-F) = N[C@@H](Cc1c[nH]c2c(F)cccc12)C(=O)O; 2Nal = N[C@@H](Cc1ccc2ccccc2c1)C(=O)O; AEF = NCCOc1ccc(C[C@H](N)C(=O)O)cc1; X1 = O=C(Cc1ccc(CN[*:1])cc1)[*:2]; X22 = NC(=O)C[C@@H](N*)c1cccnc1; αMeL = CC(C)C[C@](C)(N)C(=O)O; CH2COCH2 = O=C(C[*:1])C[*:2]; 3Amb = NCc1cccc(C(=O)O)c1; 4Amb = NCc1ccc(C(=O)O)cc1; Orn = NCCC[C@H](N)C(=O)O; Pyrrolidide = C1CCN(*)C1; Dab = NCC[C@H](N)C(=O)O

The target in the assay is T1, human IL-23R (Homo sapiens, UniProt Q5VWK5).
T1 construct: UniProtKB—Q5VWK5, amino acids 22-629; secretion signal of the plasmid (Promega N1371); expressed in transfected cells
T1 sequence (Q5VWK5 22-629): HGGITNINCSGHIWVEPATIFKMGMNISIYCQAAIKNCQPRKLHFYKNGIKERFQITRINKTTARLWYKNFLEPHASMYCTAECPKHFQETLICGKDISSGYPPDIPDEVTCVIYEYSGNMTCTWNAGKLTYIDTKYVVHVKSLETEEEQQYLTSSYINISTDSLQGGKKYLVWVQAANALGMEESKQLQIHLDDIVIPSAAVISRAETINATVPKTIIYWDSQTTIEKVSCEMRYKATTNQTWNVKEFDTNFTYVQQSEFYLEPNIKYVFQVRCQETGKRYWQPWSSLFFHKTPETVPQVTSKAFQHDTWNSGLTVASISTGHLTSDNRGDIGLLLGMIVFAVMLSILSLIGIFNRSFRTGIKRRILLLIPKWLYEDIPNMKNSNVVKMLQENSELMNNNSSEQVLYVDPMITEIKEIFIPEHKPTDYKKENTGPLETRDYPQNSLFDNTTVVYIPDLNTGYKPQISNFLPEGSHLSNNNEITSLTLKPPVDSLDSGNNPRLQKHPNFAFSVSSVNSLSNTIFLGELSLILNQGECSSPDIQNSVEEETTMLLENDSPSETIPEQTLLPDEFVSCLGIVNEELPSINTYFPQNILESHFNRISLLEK
In words: Binding assay (NanoBRET displacement of fluorophore-labelled reference compound) for estimating binding affinity to human IL-23R. The source says: Binding Assay for Estimating Binding Affinity of Compounds to Human IL-23R
The compound binding affinity for IL-23R was estimated by the ability of compounds to displace a fluorophore-labelled reference compound from the human IL-23R. The assay principle relies on Bioluminescence Resonance Energy Transfer (BRET) between a fluorophore-labelled reference compound binding to the IL-23R part of a fusion protein consisting of the IL-23R fused to a Nanoluc luciferase enzyme (Nanoluc). The Nanoluc is placed in the N-terminus in close proximity to the binding domain of the ligand. Upon close proximity between the fluorophore of the fluorophore-labelled compound and the Nanoluc of the fusion protein, bioluminescence energy generated from conversion of a Nanoluc substrate, is transferred to the fluorophore resulting in an increase in BRET. In presence of an unlabelled compound, the unlabelled compound displaces the fluorophore-labelled peptide from its binding site resulting in a decrease in BRET. The concentration for which half of the fluorophore-labelled peptide is displaced by the unlabelled compound depends on the affinity of the compound for the IL-23R, and is termed the IC50 concentration. An estimated affinity (K) of the unlabelled compound for the IL-23R may be calculated using the Cheng-Prussov equation, which takes into account the concentration of the fluorophore-labelled compound used, and the affinity of the fluorophore-labelled compound for IL-23R.
The plasmid also contained a gene to confer resistance for the antibiotic hygromycin. A cell line stably expressing the Nluc-IL23R fusion protein was generated by transfection of HEK293 cells with the expression plasmid and selected with hygromycin for 3 weeks in Growth medium consisting of DMEM w/Glutamax-I containing, 10% V/V FBS, 1% V/V P/S, 1 mM Sodium Pyruvate, and 1×NEAA, and 0.3 mg/mL hygromycin. The remaining cells were propagated and considered a stable expressing Nluc-IL23R fusion protein pool clone.
Cells expressing the Nluc-IL23R fusion protein were expanded in Growth medium and membranes prepared by homogenization of a cell pellet from 18 T175 flasks (4° C. in subsequent steps). The cell pellet was lysed Tris 10 mM, 7.5, 1 mM EDTA and protease inhibitors (Complete, Roche) and homogenized using a 15 mL glass-dounce by 50 strokes. The homogenate was spun at spin @1500 rpm for 10 min, the supernatant transferred to SV-34 tubes and spun at 40000 g for 20 min at 4° C. to pellet the crude membranes. The supernatant was then removed, the pellet resuspended in 5 mL buffer containing 50 mM HEPES pH 7.4, 5 mM EGTA, and 5 mM MgCl2, and homogenized. Aliquots of the resuspended and homogenized membranes containing the Nluc-IL23R fusion protein were stored at −80° C. until use.
The plate was sealed with light impermeable plate seals, and incubated on a orbital shaker 400 rpm for 2 hours at room temperature. To determine the BRET ratio, the plate seal was removed and 25 μL of the Nanoluc substrate (Promega N1572) diluted 1:500 was added to each well and incubated for 1-2 minutes on an orbital shaker at 400 rpm. […] The BRET ratio was calculated as the fluorescence from the TAMRA/nanoluc bioluminescence. The IC50 for each compound was determined by computer-aided curve fitting using a 4-parameter logistic (4PL) non-linear model.

[1] abbreviates: Table 3-1, read-out: Ki hIL-23R.

Regarding `CC(=O)N[C@H]1CCCCNC(=O)CC[C@@H](C(=O)N[C@H](CCCNC(=N)N)C(N)=O)NC(=O)[C@](C)(CC(C)C)NC(=O)[C@H](Cc2ccc3ccccc3c2)NC(=O)[C@H](Cc2ccc(OCCN)cc2)NC(=O)[C@@H]2CSCC(=O)CSC[C@H](NC(=O)[C@H](CO)NC1=O)C(=O)N[C@@H](Cc1c[nH]c3ccccc13)C(=O)N[C@@H](CCC(N)=O)C(=O)N2` [Compound 84, [Ac]-K(1c)SC(2a)WQC(2a)[Y(2-aminoethoxy)][2-Nal][2-Me-Leu]E(1c)[{d}R]-[NH2]] (Ac-KSCWQC[AEF][2Nal][αMeL]E[dR]-NH2; lactam 1-10; linker 3-6 via CH2COCH2), under setting [1], the Ki (commonly the equilibrium dissociation constant of an inhibitor or competing ligand from its target) was 922 pM.
Consider `CC(C)C[C@]1(C)NC(=O)[C@H](Cc2ccc3ccccc3c2)NC(=O)[C@H](Cc2ccc(OCCN)cc2)NC(=O)[C@@H]2CCNC(=O)CC[C@H](NC(=O)[C@H](CO)NC(=O)c3cccc(c3)CNC(=O)CC[C@@H](C(=O)N[C@@H](CCCNC(=N)N)C(N)=O)NC1=O)C(=O)N[C@@H](Cc1c[nH]c3ccccc13)C(=O)N[C@@H](CCC(N)=O)C(=O)N2` [Compound 67, [(3-Aminomethyl)benzoyl](1c)*SE(2c)WQ[Dab](2c)[Y(2-aminoethoxy)][2-Nal][2-Me-Leu]E(1c)R-[NH2]] ([3Amb]SEWQ[Dab][AEF][2Nal][αMeL]ER-NH2; lactam 3-6, N-10), for which the Ki under setting [1] was 760 pM.
On the same count and under the same terms, to `CC(C)C[C@]1(C)NC(=O)[C@H](Cc2ccc3ccccc3c2)NC(=O)[C@H](Cc2ccc(OCCN)cc2)NC(=O)[C@@H]2CCNC(=O)CC[C@H](NC(=O)[C@H](CO)NC(=O)Cc3ccc(cc3)CNC(=O)CC[C@@H](C(=O)N[C@@H](CCN)C(N)=O)NC1=O)C(=O)N[C@@H](Cc1c[nH]c3c(F)cccc13)C(=O)N[C@@H](CCC(N)=O)C(=O)N2` [Compound 139, [4-Aminomethyl-phenylacetyl](1c)*SE(2c)[7-F-Trp]Q[Dab](2c)[Y(2-aminoethoxy)][2-Nal][2-Me-Leu]E(1c)[Dab]-[NH2]] ([X1]SE[Trp(7-F)]Q[Dab][AEF][2Nal][αMeL]E[Dab]-NH2; lactam 3-6, N-10) belongs 612 pM.
With `CC(C)C[C@]1(C)NC(=O)[C@H](Cc2ccc3ccccc3c2)NC(=O)[C@H](Cc2ccc(OCCN)cc2)NC(=O)[C@@H]2CSCC(=O)CSC[C@H](NC(=O)[C@H](CO)NC(=O)c3ccc(cc3)CNC(=O)CC[C@@H](C(=O)N[C@@H](CCCNC(=N)N)C(N)=O)NC1=O)C(=O)N[C@@H](Cc1c[nH]c3ccccc13)C(=O)N[C@@H](CCC(N)=O)C(=O)N2` [Compound 49, [(4-Aminomethyl)benzoyl](1c)*SC(2a)WQC(2a)[Y(2-aminoethoxy)][2-Nal][2-Me-Leu]E(1c)R-[NH2]] ([4Amb]SCWQC[AEF][2Nal][αMeL]ER-NH2; linker 3-6 via CH2COCH2; lactam N-10), where the note is “Table 2-10b, read-out: Ki IL-23R”, the Ki was 1160 pM.
On to `CC(C)C[C@]1(C)NC(=O)[C@H](Cc2ccc3ccccc3c2)NC(=O)[C@H](Cc2ccc(OCCN)cc2)NC(=O)[C@@H]2CCNC(=O)CC[C@H](NC(=O)[C@H](C(C)C)NC(=O)Cc3ccc(cc3)CNC(=O)CC[C@@H](C(=O)N[C@@H](CCN)C(N)=O)NC1=O)C(=O)N[C@@H](Cc1c[nH]c3ccccc13)C(=O)N[C@@H](CCC(N)=O)C(=O)N2` [Compound 126, [4-Aminomethyl-phenylacetyl](1c)*VE(2c)WQ[Dab](2c)[Y(2-aminoethoxy][2-Nal][2-Me-Leu]E(1c)[Dab]-[NH2]] ([X1]VEWQ[Dab][AEF][2Nal][αMeL]E[Dab]-NH2; lactam 3-6, N-10), for which the Ki under setting [1] is 718 pM.
The same measure, in the same setting: as for `CC(C)C[C@]1(C)NC(=O)[C@H](Cc2ccc3ccccc3c2)NC(=O)[C@H](Cc2ccc(OCCN)cc2)NC(=O)[C@@H]2CSCC(=O)CSC[C@H](NC(=O)[C@H](CO)NC(=O)Cc3ccc(cc3)CNC(=O)CC[C@@H](C(=O)N[C@H](Cc3c[nH]cn3)C(N)=O)NC1=O)C(=O)N[C@@H](Cc1c[nH]c3ccccc13)C(=O)N[C@@H](CCC(N)=O)C(=O)N2` [Compound 117, [4-Aminomethyl-phenylacetyl](1c)*SC(2a)WQC(2a)[Y(2-aminoethoxy)][2-Nal][2-Me-Leu]E(1c)[{d}H]-[NH2]] ([X1]SCWQC[AEF][2Nal][αMeL]E[dH]-NH2; linker 3-6 via CH2COCH2; lactam N-10), the figure is 188 pM.
Same read-out and setting: as for `CC(C)C[C@]1(C)NC(=O)[C@H](Cc2ccc3ccccc3c2)NC(=O)[C@H](Cc2ccc(OCCN)cc2)NC(=O)[C@@H]2CSCC(=O)CSC[C@H](NC(=O)[C@H](CO)NC(=O)Cc3ccc(cc3)CNC(=O)CC[C@@H](C(=O)N[C@H](CCCNC(=N)N)C(=O)O)NC1=O)C(=O)N[C@@H](Cc1c[nH]c3ccccc13)C(=O)N[C@@H](CCC(N)=O)C(=O)N2` [Compound 108, [4-Aminomethyl-phenylacetyl](1c)*SC(2a)WQC(2a)[Y(2-aminoethoxy)][2-Nal][2-Me-Leu]E(1c)[{d}R]-[OH]] ([X1]SCWQC[AEF][2Nal][αMeL]E[dR]-OH; linker 3-6 via CH2COCH2; lactam N-10), the figure is 99.5 pM; as for `CC(C)C[C@]1(C)NC(=O)[C@H](Cc2ccc3ccccc3c2)NC(=O)[C@H](Cc2ccc(OCCN)cc2)NC(=O)[C@@H]2CCNC(=O)CC[C@H](NC(=O)[C@H](CCC(=O)N3CCCC3)NC(=O)Cc3ccc(cc3)CNC(=O)CC[C@@H](C(=O)N[C@@H](CCN)C(N)=O)NC1=O)C(=O)N[C@@H](Cc1c[nH]c3ccccc13)C(=O)N[C@@H](CCC(N)=O)C(=O)N2` [Compound 145, [4-Aminomethyl-phenylacetyl](1c)*[Q(pyrrolidin)]E(2c)WQ[Dab](2c)[Y(2-aminoethoxy)][2-Nal][2-Me-Leu]E(1c)[Dab]-[NH2]] ([X1]E(Pyrrolidide)EWQ[Dab][AEF][2Nal][αMeL]E[Dab]-NH2; lactam 3-6, N-10), 723 pM; as for `CC(C)C[C@]1(C)NC(=O)[C@H](Cc2ccc3ccccc3c2)NC(=O)[C@H](Cc2ccc(OCCN)cc2)NC(=O)[C@@H]2CSCC(=O)CSC[C@H](NC(=O)[C@H](CO)NC(=O)c3cccc(c3)CNC(=O)CC[C@@H](C(=O)N[C@@H](CCCNC(=N)N)C(=O)N[C@H](CC(N)=O)c3cccnc3)NC1=O)C(=O)N[C@@H](Cc1c[nH]c3ccccc13)C(=O)N[C@@H](CCC(N)=O)C(=O)N2` [Compound 151, [(3-Aminomethyl)benzoyl](1c)*SC(2a)WQC(2a)][Y(2-aminoethoxy)][2-Nal][2-Me-Leu]E(1c)R[3-Amino-3-(3′-pyridyl)propionyl]-[NH2]] ([3Amb]SCWQC[AEF][2Nal][αMeL]ER-X22; linker 3-6 via CH2COCH2; lactam N-10), 672 pM.
As to `CC(C)C[C@]1(C)NC(=O)[C@H](Cc2ccc3ccccc3c2)NC(=O)[C@H](Cc2ccc(OCCN)cc2)NC(=O)[C@@H]2CCCNC(=O)CC[C@H](NC(=O)[C@H](CO)NC(=O)c3cccc(c3)CNC(=O)CC[C@@H](C(=O)N[C@@H](CCCNC(=N)N)C(N)=O)NC1=O)C(=O)N[C@@H](Cc1c[nH]c3ccccc13)C(=O)N[C@@H](CCC(N)=O)C(=O)N2` [Compound 69, [(3-Aminomethyl)benzoyl](1c)*SE(2c)WQ[Orn](2c)[Y(2-aminoethoxy)][2-Nal][2-Me-Leu]E(1c)R-[NH2]] ([3Amb]SEWQ[Orn][AEF][2Nal][αMeL]ER-NH2; lactam 3-6, N-10), the Ki under setting [1] is 2760 pM.
